Results reported in ChEMBL document CHEMBL1132225, “Novel antidiabetic and hypolipidemic agents. 3. Benzofuran-containing thiazolidinediones” (J Med Chem, 1999).
Values belong to the molecule of their own block, whether it stands above or below them. Calls of active or inactive are those of the source. No cut-off for these calls is given here.

Legend:
Mus musculus [1] = organism: Mus musculus; experiment: Percent reduction of plasma glucose after 6 days of treatment (various doses).; assay type: functional
Mus musculus [2] = organism: Mus musculus; experiment: The compound was tested for percent reduction of plasma triglyceride after 6 days of treatment; not active; assay type: functional, organism-based
Mus musculus [3] = experiment: Percent reduction of plasma glucose (PG) after 6 days of treatment. It is the mean of standard deviation observed in plasma glucose (PG) in db/db mice at dose of 200 mg/kg/day; assay type: functional; details: route oral
Mus musculus [4] = experiment: Percent reduction in plasma triglyceride (TG) after 6 days of treatment. It is the mean of standard deviation observed in plasma triglyceride (TG) in db/db mice at dose of 200 mg/kg/day; NA = Not Active; assay type: functional, organism-based
Mus musculus [5] = organism: Mus musculus; experiment: The compound was tested for percent reduction of plasma triglyceride after 6 days of treatment.; assay type: functional; design: concentration or dose not given beside the values
Mus musculus [6] = experiment: Percent reduction of plasma glucose (PG) after 6 days of treatment. It is the mean of standard deviation observed in plasma glucose (PG) in db/db mice at dose of 30 mg/kg/day; assay type: functional; details: route oral
Mus musculus [7] = experiment: Percent reduction in plasma triglyceride (TG) after 6 days of treatment. It is the mean of standard deviation observed in plasma triglyceride (TG) in db/db mice at dose of 30 mg/kg/day; assay type: functional; details: route oral
Mus musculus [8] = organism: Mus musculus; experiment: The compound was tested for percent reduction of plasma glucose after 6 days of treatment; Not Active; assay type: functional, organism-based
Mus musculus [9] = experiment: Percent reduction of plasma glucose (PG) after 6 days of treatment. It is the mean of standard deviation observed in plasma glucose (PG) in db/db mice at dose of 100 mg/kg/day; NA = Not Active; assay type: functional, organism-based
Mus musculus [10] = experiment: Percent reduction in plasma triglyceride (TG) after 6 days of treatment. It is the mean of standard deviation observed in plasma triglyceride (TG) in db/db mice at dose of 100 mg/kg/day; assay type: functional; details: route oral
Mus musculus [11] = experiment: Percent reduction in plasma triglyceride (TG) after 6 days of treatment. It is the mean of standard deviation observed in plasma triglyceride (TG) in db/db mice at dose of 100 mg/kg/day; NA = Not Active; assay type: functional
Mus musculus [12] = organism: Mus musculus; experiment: The compound was tested for percent reduction of plasma triglyceride after 6 days of treatment; Not Active; assay type: functional, organism-based
[13] = Pharmacokinetic Parameter, half life period measured in Female Wistar Rats at 100 mg/kg by po administration; assay type: ADME, organism-based; design: dose 100 mg/kg, route oral; details: rat, in vivo
[14] = Pharmacokinetic Parameter, Tmax is the time at which maximum concentration (Cmax) is reached in Female Wistar Rats at 100 mg/kg by po administration; assay type: ADME, organism-based; design: dose 100 mg/kg, route oral; details: rat, in vivo
[15] = Pharmacokinetic Parameter, AUC (0-infinity) is the area under the plasma concentration versus time curve extrapolated to infinity in Female Wistar Rats at 100 mg/kg by po administration; assay type: ADME, organism-based; design: time infinity, dose 100 mg/kg, route oral; details: rat, read-out: AUC 0-infinity
[16] = Pharmacokinetic Parameter, AUC (0-t) is the area under the plasma concentration versus time curve in Female Wistar Rats at 100 mg/kg by po administration; assay type: ADME, organism-based; design: dose 100 mg/kg, route oral; details: rat
[17] = Pharmacokinetic Parameter, Cmax is observed maximum plasma concentration in Female Wistar Rats at 100 mg/kg by po administration; assay type: ADME, organism-based; design: dose 100 mg/kg, route oral; details: rat
[18] = Pharmacokinetic Parameter, Kel is elimination rate constant in Female Wistar Rats at 100 mg/kg by po administration; assay type: ADME, organism-based; design: dose 100 mg/kg, route oral; details: rat, in vivo
Mus musculus [19] = experiment: Percent reduction of plasma glucose (PG) after 6 days of treatment. It is the mean of standard deviation observed in plasma glucose (PG) in db/db mice at dose of 100 mg/kg/day; assay type: functional; details: route oral

SMILES: Cc1c(C)c2c(c(C)c1OCc1ccccc1)C(COc1ccc(/C=C3\SC(=O)NC3=O)cc1)C(C)(C)O2 (stereo not given)
Reduction (Mus musculus [1]): 10% | Reduction (Mus musculus [2]): inactive | PG (Mus musculus [3]): 10% | TG (Mus musculus [4]): inactive

SMILES: Cc1c(C)c2c(c(C)c1OCc1ccccc1)C(CN1CCC[C@H]1COc1ccc(/C=C3\SC(=O)NC3=O)cc1)C(C)(C)O2.Cl (stereo not given in full)
Reduction (Mus musculus [1]): 25% | Reduction (Mus musculus [5]): 57% | PG (Mus musculus [6]): 25% | TG (Mus musculus [7]): 57%

SMILES: Cc1c(C)c2c(c(C)c1OCc1ccccc1)C(CN1CCC[C@@H](Oc3ccc(/C=C4\SC(=O)NC4=O)cc3)C1)C(C)(C)O2 (stereo not given in full)
Reduction (Mus musculus [8]): inactive | Reduction (Mus musculus [5]): 52% | PG (Mus musculus [9]): inactive | TG (Mus musculus [10]): 52%

SMILES: Cc1c(C)c2c(c(C)c1O)C(CN(C)CCOc1ccc(CC3SC(=O)NC3=O)cc1)C(C)(C)O2 (stereo not given)
Reduction (Mus musculus [1]): 19% | PG (Mus musculus [3]): 19%

SMILES: Cc1c(C)c2c(c(C)c1O)C(COc1ccc(/C=C3\SC(=O)NC3=O)cc1)C(C)(C)O2 (stereo not given)
Reduction (Mus musculus [1]): 11% | Reduction (Mus musculus [2]): inactive | PG (Mus musculus [3]): 11% | TG (Mus musculus [4]): inactive

SMILES: Cc1oc2c(C)c(C)c(OCc3ccccc3)c(C)c2c1CN1CCC[C@@H](Oc2ccc(/C=C3\SC(=O)NC3=O)cc2)C1
Reduction (Mus musculus [8]): inactive | Reduction (Mus musculus [2]): inactive | PG (Mus musculus [9]): inactive | TG (Mus musculus [11]): inactive

SMILES: Cc1c(C)c2c(c(C)c1OCc1ccccc1)C(CN(C)CCOc1ccc(/C=C3\SC(=O)NC3=O)cc1)C(C)(C)O2 (stereo not given)
Reduction (Mus musculus [1]): 23% | Reduction (Mus musculus [12]): inactive | PG (Mus musculus [3]): 23% | TG (Mus musculus [4]): inactive

SMILES: Cc1oc2c(C)c(C)c(OCc3ccccc3)c(C)c2c1CN1CCC[C@H]1COc1ccc(CC2SC(=O)NC2=O)cc1 (stereo not given in full)
PG (Mus musculus [9]): inactive | TG (Mus musculus [11]): inactive

half-life [13]: 10.1 h | Tmax [14]: 5 h | AUC(0-inf) [15]: 65000 ng·h/mL | AUC(0-t) [16]: 53800 ng·h/mL | Cmax [17]: 4300 ng/mL | k el [18]: 1.94e-05 s⁻¹
SMILES: Cc1c(C)c2c(c(C)c1OCc1ccccc1)C(CN1CCC[C@H]1COc1ccc(/C=C3\SC(=O)NC3=O)cc1)C(C)(C)O2.O=C(O)/C=C\C(=O)O (stereo not given in full)
PG (Mus musculus [6]): 45% | TG (Mus musculus [7]): 42%

SMILES: Cc1oc2c(C)c(C)c(OCc3ccccc3)c(C)c2c1CN1CCC[C@H]1COc1ccc(/C=C2\SC(=O)NC2=O)cc1
Reduction (Mus musculus [1]): 50% | Reduction (Mus musculus [12]): inactive | PG (Mus musculus [19]): 50% | TG (Mus musculus [11]): inactive
